# Patent publication US20230348538A1, “METHOD FOR TREATMENT OF DRY EYE COMPRISNG APPLYING P55PIK INHIBITOR” (Wuhan Yicheng Biological Technology Co., Ltd., priority 2020, published 2023)
# How the values were obtained:
# [1] = test system: rabbit model of dry eye (0.1% benzalkonium chloride); assay: Rabbit model of dry eye: Schirmer's test; format: in vivo, New Zealand white rabbits
# Method: 1.2.1 Grouping: thirty New Zealand white rabbits were randomly divided into three groups, each comprising 10 rabbits: a blank control group, a solvent control group, and a drug treatment group.
# 1.2.2 Preparation of a rabbit model of dry eye: the right eye of each rabbit was used to establish a dry eye rabbit model by administering 0.1% benzalkonium chloride eye drops twice a day for 4 weeks. After 4 weeks, the dry eye rabbit model was evaluated, with the conjunctiva appearing dry, tear production being reduced, and Schirmer test values being less than 10 mm/5 min (compared to the control group, where all Schirmer test values were above 10 mm).
# 1.2.3 Drug preparation and usage: a liquid formulation of 0.1% TAT-N16 peptide eye drops were prepared by dissolving the peptide raw materials in physiological saline according to a weight ratio of 0.1%. The eye drops comprising 0.1% TAT-N16 peptide were administered 2 drops, 3 times a day for 7 days. The blank control group received no treatment, and the solvent control group received physiological saline eye drops 2 drops, 3 times a day for 7 days. The normal eye group served as a normal control group.
# 1.3 Specimen collection and animal testing were conducted by the same individual. […] The rabbit conjunctiva appearance, fluorescein staining, tear film break-up time were analyzed using a slit lamp before and on days 4 and 7 after treatment; additionally, the Schirmer's test and conjunctival impression cytology (CIC) were carried out.
# 1.3.1 Schirmer's test: the corneal surface was anesthetized with oxybuprocaine hydrochloride; a cotton swab was used to absorb the fluid around the eyelid; the Schirmer tear test strips were placed at the junction of the ⅓ posterior-middle of the lower conjunctival sac of the New Zealand white rabbit, with the remaining part hanging on the skin surface; the New Zealand white rabbit was then instructed to close its eyes, and after 5 minutes, the length of wet portion of the Schirmer tear test strips was measured.
# [2] = test system: dry eye model induced by 0.2% benzalkonium chloride solution; assay: Benzalkonium chloride dry eye model: tear film break-up time (BUT); format: in vivo, C57BL/6 mice
# Method: The healthy male C57BL/6 mice were kept in a controlled environment with a temperature of (25±1)° C., a relative humidity of (25±5)%, and light-dark cycles (9 AM-9 PM) with simulated dawn and dusk. Forty mice (80 eyes) were treated with 5 μL of 0.2% benzalkonium chloride solution twice a day (8:00 AM and 6:00 PM) for 14 days to induce dry eye symptoms, while the remaining ten mice (20 eyes) received no treatment and served as a baseline control. Modeling was carried out on the 15th day; and the dry eye rat models were screened based on tear film break-up time (BUT), fluorescein sodium staining of corneal, and Schirmer's test I for tear secretion. Tear film break-up time (BUT) was used to assess the tear film stability: 1 μL of 1% fluorescein sodium solution was instilled into the conjunctival sac of the mouse, and the mouse was held and blinked artificially three times; the upper and lower eyelids of the mouse were then separated; and the tear film was observed under cobalt blue filter on a slit lamp; the tear film break-up time was recorded as the number of seconds that elapse between the last blink and the appearance of the first dry spot in the tear film of the cornea; each eye was measured three times, and the average of the three measurements was recorded in seconds. […] Group A, the drug treatment group, was treated with the eye drops comprising 0.1% TAT-[…] peptide, four times a day; Group B, the solvent control group, was treated with eye drops without TAT-[…] peptide, four times a day; and Group C, the blank control group, received no treatment; on days 1, 4, and 7 after treatment, BUT, Schirmer's test I, and fluorescein sodium staining were performed; on the 7th day, the paraffin sections of the conjunctival fornix was stained by PAS stain; and the number of PAS-positive goblet cells was counted.
# [3] = test system: rat model of dry eye induced by corneal epithelial injury; assay: Rat model of dry eye induced by corneal epithelial injury: corneal epithelial injury score (sodium fluorescein, slit lamp); format: in vivo, SD rats
# Method: Grouping and administration: the eighteen rats were then randomly divided into three groups, with 6 laboratory rats in each group (male and female in equal numbers); Group 1 was the blank control group and received no treatment; Group 2 was the solvent control group and was treated with solvent eye drops that contained a solvent but no TAT-N16 peptide; Group 3 was the drug treatment group and was treated with eye drops comprising 0.1% TAT-N16 peptide; the eye drops were administered four times a day (1 drop/time) for 7 days; the corneal epithelial injury was evaluated on days 0, 4 and 7 after treatment.
# Detection method and scoring criteria: corneal staining was performed by injecting 1 drop pf sodium fluorescein into the conjunctival sac using the 5 mL sterile syringe with the […] needle; the corneal epithelium was observed under the blue light from the slit lamp after 5 minutes; and the scoring criteria were shown in Table 1.
substance,measurement,setting,value
"TAT-N16 peptide: cell-penetrating artificial peptide, sequence SEQ ID NO: 2, constructed by linking the peptide N16 to a TAT sequence; P55PIK inhibitor (YGRKKRRQRRRMMPYSTELIFYIEMDP)",Schirmer' test values,"[1]; 0 d / before treatment (baseline), drug treatment group",8.38±0.57 mm
same,Schirmer' test values,"[1]; 4 d, 0.1% eye drops 2 drops, 3 times a day",12.02±1.21 mm
same,Schirmer' test values,"[1]; 7 d, 0.1% eye drops 2 drops, 3 times a day",16.31±1.45 mm
same,Tear film break-up time (BUT) values (x ± s),"[2]; 0 d (baseline), drug treatment group, 0.1% eye drops",3.49 ± 0.43 s
same,"Tear film break-up time compared with blank control group, model control group and solvent control group",[2]; 4th day of treatment,significantly longer
same,Tear film break-up time (BUT) values (x ± s),"[2]; 4 d, 0.1% eye drops four times a day",4.82 ± 0.57 s
same,Tear film break-up time (BUT) values (x ± s),"[2]; 7 d, 0.1% eye drops four times a day",5.99 ± 0.55 s
same,"Tear film break-up time compared with blank control group, model control group and solvent control group","[2]; 7 days of continuous treatment, P=0.007",significantly longer
same,Corneal epithelial injury score compared with blank control group or solvent control group,"[3]; 4 days of treatment, P>0.05",no statistically significant difference
same,Corneal epithelial injury score compared with blank control group or solvent control group,"[3]; 7 days of treatment, P<0.05",significantly lower
same,"Corneal epithelial injury scores (x ± s, n = 6)","[3]; after 4 days of treatment, 0.1% eye drops four times a day",3.08 ± 1.43
same,"Corneal epithelial injury scores (x ± s, n = 6)","[3]; after 7 days of treatment, 0.1% eye drops four times a day",0.84 ± 0.96
same,"Corneal epithelial injury scores (x ± s, n = 6)","[3]; before treatment (baseline), drug treatment group, 0.1% eye drops",4.81 ± 1.61
